“And” between values parts separate entries of the source, which are not always exact repeats. Equal values may be shown once.
Key:
Format in all cases: cell-based, rat
isolated glomeruli [1] = experiment: Albumin permeability (Palb) of isolated glomeruli; settings: 10 ng/ml
Protocol: Measurement of Albumin Permeability (Palb): Glomeruli were isolated using the sieving method as previously described in a medium containing 5 g/dl of bovine serum albumin (BSA). See, Sharma R, et al, Kidney Intl. 58:131-136 (2000); and Savin V, et al. J. Am. Soc. Nephrol. 3:1260-1269 (1992). In each experimental condition, Palb was determined from the change in glomerular volume (•V) after exchange of the bath with medium containing 1 g/dl albumin. Palb was calculated as 1−(•Vexperimental/•Vcontrol) where glomeruli from SD rats fed a normal-salt diet were used to provide the control value for each experiment. To verify that lack of •Vs in Dahl S rats were related to changes in Palb rather than to changes in mechanical properties of glomeruli, additional studies were performed in which the glomeruli were exposed to a 5% solution of high molecular weight dextran.
In other experiments, we examined the interaction of TGF-• and 20-HETE on Palb in glomeruli isolated from SD rats and Dahl S rats fed either a LS diet or a HS diet for 4 days. Glomeruli were preincubated with vehicle or TGF-•1 (10 ng/ml) for 15 minutes at 37° C. and changes in Palb were determined. Glomeruli were also pretreated with 5, 14-20-HEDE (WIT003) (1 μmol/L; Taisho Pharmaceutical; Tokyo, Japan) (Alonso-Galicia et al., supra; and Yu et al., supra), for 15 minutes at 37° C. and the Palb response to TGF-• 1 (10 ng/ml) was redetermined. A minimum of 5 glomeruli from each rat were studied, and the experiments were performed using •5 rats per treatment group.

[2] = system: glomerular production of 20-HETE; experiment: LC/MS measurement of glomerular 20-HETE production
Protocol: Liquid Chromatography/Mass Spectroscopy measurement of glomerular 20-HETE production: Glomeruli (approximately 20 μg protein) were incubated in a 0.1 mol/L KPO4 buffer containing 1 mmol/L NADPH for 30 minutes at 37° C. in the presence and absence of TGF-•1 (10 ng/ml). Incubations were stopped by acidification with formic acid, homogenized, and the homogenate extracted with chloroform:methanol (2:1) after addition of 10 ng of internal standard, 14,15-epoxyeicosa-5(Z)-enoic-methyl sulfonylimide (EEZE). Samples were reconstituted in 50% acetonitrile, cleaned up using on online, reverse-phase high performance liquid chromatography (HPLC) trapping column, and then the HETEs and epoxyeicosatrienoic acids (EETs) in the samples were separated using an isocratic step gradient on an 18C—RP 2×250 mm microbore HPLC (BetaBasic18 150×21 3•m; Thermo Hypersil-Keystone; Bellefonte, Pa.) using a mobile phase consisting of acetonitrile:water:acetic acid (57:43:0.1) for 20 minutes to resolve the HETEs followed by acetonitrile:water:acetic acid (63:37:0.1) for 15 minutes to resolve the EETs. Samples were ionized using negative ion electrospray and the peaks eluting with a mass/charge ratio (m/z) of 319 (HETEs and EETs) or 323 (internal standard) were isolated and monitored in the selective ion mass spectroscopy (MS) mode using an Agilent LSD ion trap mass spectrometer (Agilent Technologies 1100; Santa Clara Calif.). The ratio of ion abundances in the peaks of interest (HETEs and EETs, m/z 319) versus that corresponding to the closely eluting internal standard (EEZE, m/z 323) were determined and compared with a standard curve generated over a range from 0.1 ng to 2 ng of 20-HETE and EETs with each batch of samples.

isolated glomeruli [3] = experiment: Albumin permeability (Palb) of isolated glomeruli; settings: glomeruli from Dahl S rats fed HS diet for 7 days; 10 ng/ml
[4] = glomeruli pretreated with TGF-•1 10 ng/ml

## TGF-•1: transforming growth factor-beta 1, applied to isolated glomeruli at 10 ng/ml
Isolated glomeruli [1]; glomeruli from Dahl S rats fed HS diet for 4 days
  Palb after TGF-•1: 0.87±0.02
Isolated glomeruli [1]; glomeruli from Dahl S rats fed a LS diet
  Palb after TGF-•1: 0.75±0.01
Isolated glomeruli [1]; glomeruli from SD rats, 15 minutes, 37° C.
  Palb after TGF-•1: 0.60±0.02 and 0.56±0.02
[2]; SD glomeruli with TGF-•1 10 ng/ml
  glomerular production of 20-HETE: 3.4±0.5 ·g/30 minutes/mg protein
[2]; [4]
  formation of 15-, 12- or 5-HETE or EETs: without affecting
  reduction of formation of 20-HETE: 97%
Isolated glomeruli [3]
  effect on Palb: no effect
